Data on 6 substances can be found in PMC8954214, “Preparation, Identification, Molecular Docking Study and Protective Function on HUVECs of Novel ACE Inhibitory Peptides from Protein Hydrolysate of Skipjack Tuna Muscle” (Marine Drugs, 2022).

Series [1] has as its system HUVECs. In words: ET-1 secretion of HUVECs. The format is cell-based, human. The settings on record: 24 h. From the text: Skipjack tuna (K. pelamis) muscle was provided by Ningbo Today Food Co., Ltd (China). Sephadex G-25 resins and NO assay kit (Nitrate reductase approach, A012-1) were purchased from Nanjing Jiancheng Bioengineering Institute (China). ET-1 ELISA Kit (HM10108) was purchased from Shanghai Qiaodu Biotechnology Co. Ltd. (China).Trypsase (≥20,000 U/g), pepsase (≥500,000 U/g), papain (≥400,000 U/g), ACE (A6778) and N-[3-(2-Furyl) acryloyl]-Phe-Gly-Gly (FAPGG, F713) were purchased from Sigma-Aldrich (Shanghai) Trading Co., Ltd. (China). […] ACEi Peptides of (TMAP1-TMAP6) with purity higher than 98% were synthesized in Shanghai Apeptide Co. Ltd. (China).
The NO and ET-1 contents of HUVECs were determined after a 24 h treatment of ACEi peptides. […] NO and ET-1 production in treated cells were measured by employing human NO and ET-1 assay kit as manufactures’ protocol, separately.

Series [2] relates to HUVECs. Briefly: NO production in HUVECs. The format is cell-based, human. The settings on record: 24 h.
In series [3] the test system is HUVECs. Briefly: HUVEC viability, MTT assay. The format is cell-based, human. The settings on record: 24 h, 100–400 μM. The procedure: After thawing, HUVECs were maintained in cultured flasks and cultured to confluence in DMEM containing 1% Penicillin-Streptomycin liquid, supplemented with 10% FBS. HUVECs received the culturing process at 37°C in a humidified 5% CO2 atmosphere.
The cell viability of TMAP1 and TMAP2 on HUVECs were assessed using the MTT assay on manufacturer’s instructions. In brief, cells were incubated in 96-well plates at density of 0.8 × 10^4 cells per well with 180 μL completed DMEM. Following a confluency of 50–60% in the 96-well plates, the cells were treated with 20 μL peptides under designed concentrations (100, 200, and 400 μM) and further cultured for 24 h at 37 °C. Subsequently, the cells were added to 20 μL MTT solution (5 mg/mL) and incubated for 4 h. Finally, DMSO was added into each well, and the absorbance (A) at 490 nm was determined. The cell viability was calculated as: Cell viability (%) = (Aexperiment group/Acontrol group) × 100(2)

The subject of series [4] is ET-1. The settings on record: cited from earlier work; for ET-1 generation: from R. philippinarum. From the text:
Among these peptides, ACEi peptides represent a promising alternative to synthetic drugs to control hypertension. For instance, canary seed peptides (CSP) have great potential as anti-hypertensive and anti-obesity agents due to their inhibition activity on ACE and pancreatic lipase, and their non-competitive inhibitory activity was due to their destabilization of the transition state and Zn(II) coordination in ACE [13]. Noncompetitive ... || ET-1 is a known vasoconstriction factor similar to Ang II and is capable of inducing endothelial dysfunction related to atherosclerosis and hypertension.

Series [5] concerns HUVECs. To be noted: cited from earlier work. From the text:
Among these peptides, ACEi peptides represent a promising alternative to synthetic drugs to control hypertension. For instance, canary seed peptides (CSP) have great potential as anti-hypertensive and anti-obesity agents due to their inhibition activity on ACE and pancreatic lipase, and their non-competitive inhibitory activity was due to their destabilization of the transition state and Zn(II) coordination in ACE [13]. Noncompetitive ... || NO can antagonize the vascular tone function of angiotensin II by down-regulating the synthesis of ang II type 1 receptor and ACE, which is further involved in regulating the peripheral and central function of the cardiovascular system and exerts vasoprotective effects. […] Therefore, the deficiency of NO will increase the risks of cardiovascular in pathologic situations, and improving endothelial NO production represents reasonable therapeutic strateg ...

Series [6] relates to systolic blood pressure. To be noted: single blood pressure test; cited from earlier work. From the text:
(§1) Among these peptides, ACEi peptides represent a promising alternative to synthetic drugs to control hypertension. For instance, canary seed peptides (CSP) have great potential as anti-hypertensive and anti-obesity agents due to their inhibition activity on ACE and pancreatic lipase, and their non-competitive inhibitory activity was due to their destabilization of the transition state and Zn(II) coordination in ACE [13]. Noncompetitive ...

For series [7], the target named is T1, ACE (Oryctolagus cuniculus, UniProt P12822).
T1 construct: purchased Sigma-Aldrich (Shanghai) Trading Co., Ltd. A6778
T1 sequence (P12822 34-1310): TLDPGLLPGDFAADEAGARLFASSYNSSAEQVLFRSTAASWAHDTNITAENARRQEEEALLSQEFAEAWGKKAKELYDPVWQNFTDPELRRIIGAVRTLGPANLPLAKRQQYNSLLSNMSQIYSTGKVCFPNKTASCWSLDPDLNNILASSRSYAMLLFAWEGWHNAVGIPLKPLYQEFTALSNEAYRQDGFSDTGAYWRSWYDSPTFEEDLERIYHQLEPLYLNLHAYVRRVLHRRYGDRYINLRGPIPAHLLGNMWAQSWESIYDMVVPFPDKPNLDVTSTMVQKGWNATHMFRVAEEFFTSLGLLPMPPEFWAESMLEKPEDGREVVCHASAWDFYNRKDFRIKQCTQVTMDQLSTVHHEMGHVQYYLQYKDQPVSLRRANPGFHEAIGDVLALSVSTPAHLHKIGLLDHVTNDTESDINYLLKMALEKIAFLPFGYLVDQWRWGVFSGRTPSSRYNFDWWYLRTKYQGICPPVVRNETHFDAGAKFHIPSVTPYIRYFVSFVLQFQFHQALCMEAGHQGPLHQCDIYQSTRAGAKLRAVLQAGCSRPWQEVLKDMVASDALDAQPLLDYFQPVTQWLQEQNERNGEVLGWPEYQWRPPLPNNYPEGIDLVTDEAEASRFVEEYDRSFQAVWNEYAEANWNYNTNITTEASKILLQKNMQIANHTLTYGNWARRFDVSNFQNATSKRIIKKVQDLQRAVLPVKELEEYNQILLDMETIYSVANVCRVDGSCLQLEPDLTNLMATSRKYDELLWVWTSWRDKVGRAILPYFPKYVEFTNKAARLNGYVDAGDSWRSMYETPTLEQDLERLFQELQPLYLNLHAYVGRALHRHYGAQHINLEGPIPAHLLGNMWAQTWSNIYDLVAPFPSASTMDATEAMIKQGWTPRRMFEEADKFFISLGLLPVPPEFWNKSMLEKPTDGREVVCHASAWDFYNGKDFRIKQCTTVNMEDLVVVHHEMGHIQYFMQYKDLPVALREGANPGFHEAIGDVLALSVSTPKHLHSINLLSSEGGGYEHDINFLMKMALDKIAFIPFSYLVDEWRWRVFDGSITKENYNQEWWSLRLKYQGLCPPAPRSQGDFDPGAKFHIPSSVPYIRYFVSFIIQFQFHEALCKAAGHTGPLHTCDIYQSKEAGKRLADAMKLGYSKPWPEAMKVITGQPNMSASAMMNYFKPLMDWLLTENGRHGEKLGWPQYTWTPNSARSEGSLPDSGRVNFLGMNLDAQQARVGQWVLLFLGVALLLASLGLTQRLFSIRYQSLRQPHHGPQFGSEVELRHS
To be noted: from Ruditapes philippinarum; cited from earlier work. From the text: Among these peptides, ACEi peptides represent a promising alternative to synthetic drugs to control hypertension. For instance, canary seed peptides (CSP) have great potential as anti-hypertensive and anti-obesity agents due to their inhibition activity on ACE and pancreatic lipase, and their non-competitive inhibitory activity was due to their destabilization of the transition state and Zn(II) coordination in ACE [13]. […] Auwal et al. illustrated that branched aliphatic or dicarboxylic amino acids (Val, Ala, Ile, and Leu) at the N-terminus could strengthen ACEi ability of peptides. Then, Val residue at the N-terminus of TMAP2 could improve its ACEi ability. […] Therefore, Ser residue, especially its hydroxyl group, should play a vital effect in the ACEi capability of ...

The subject of series [8] is ACE N-domain. Further details: method as in PMID 33340899. To be noted: docking; cited from earlier work.
Series [9] deals with ACE C-domain. Also noted: method as in PMID 33340899. To be noted: docking; cited from earlier work.
Series [10] deals with eNOS. The settings on record: via Akt pathway; cited from earlier work.
Excerpt: as §1

With H-VDRYF-OH [TMAP2, Val-Asp-Arg-Tyr-Phe], the “ET-1 secretion with NE” value in [1] (200 μM peptide with NE (0.5 μM), NE alone 140.23 ± 5.81, p < 0.01) was found to be 111.78 ± 3.06 pg/mL. The substance further showed an ET-1 secretion in series [1] (400 μM, control 118.68 ± 0.53) of 92.09 ± 4.58 pg/mL. The “ET-1 secretion vs control group” value in [1] (tested concentrations (100–400 μM), p < 0.001 or p < 0.01) was “decreased”. The “reversal of NE-reduced NO content” value in [2] (200 μM peptide with NE (0.5 μM), p < 0.001 vs NE) is recorded as “partially offset”. The NO level in series [2] (400 μM, control 34.41 ± 1.27, p < 0.001) was found to be 51.88 ± 2.16 μmol/gprot. In series [2] (100, 200 and 400 μM, p < 0.001), the “NO level vs control group” value was “significantly increased”. In addition, in series [3], the cell toxicity entry is given as “did not induce significant cell toxicity”.
For the substance “GRVSNCAA [ACEi peptide from Ruditapes philippinarum]”, in [4], the ET-1 production entry is reported as “reduced ET-1 production” and the ET-1 generation result is “significantly lessening ET-1 generation”. Also, in series [5], the “NO production of HUVEC” value was “increasing the NO production” and the NO secretion entry was “promote NO secretion”. In addition, the systolic blood pressure entry in [6] is listed as “lower systolic blood pressure”. In [7], the concentration for half-maximal inhibition (IC50) was 57.9 µM and the “mode of ACE inhibition” value is on record as “Noncompetitive”.
As to LVLL [literature peptide docked to ACE], in [8], the N-domain affinity is -7.5 kcal/mol. In series [9], the C-domain affinity is -8.6 kcal/mol.
With “TYLPVH [ACEi peptide from Ruditapes philippinarum]”, in [4], the ET-1 production result is reported as “reduced ET-1 production” and the ET-1 generation result is “significantly lessening ET-1 generation”. In series [5], the “NO production of HUVEC” value is “increasing the NO production” and the NO secretion result is “promote NO secretion”. The systolic blood pressure entry in [6] is given as “lower systolic blood pressure”. In series [7], the half-maximal inhibitory concentration (IC50) was 1.37 µM and the “mode of ACE inhibition” value is on record as “Noncompetitive”.
“KYIPIQ [ACEi peptide found in yak milk casein]”: the “NO synthesis in HUVECs” value in series [5] (via Akt pathway) is recorded as “promote NO synthesis”. In addition, in series [10], the “expression of phosphorylated eNOS in HUVECs” value is “promote NO synthesis and the expression of phosphorylated endothelial NO synthase (eNOS) in HUVECs”.
On to YVVF [literature peptide docked to ACE], for which, in series [8], the N-domain affinity is -8.8 kcal/mol. In addition, the C-domain affinity in series [9] was -9.8 kcal/mol.
